We go through four test systems from the supplement of paper PMC10331698.

What all share (experiment): level (log10 ratio to DMSO vehicle control); higher = higher biomarker level / cell amount than vehicle control
Details in all cases: in DMSO

Compound in experiment [1]: OCC(F)(F)OC(F)(F)C(F)(F)OC(F)(F)CO [1H,1H,8H,8H-Perfluoro-3,6-dioxaoctane-1,8-diol]
The procedure:
(§1)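 BioMAP Diversity Plus panel of 12 human primary cell co-culture systems (3C, 4H, LPS, SAg, BT, BF4T, BE3C, CASM3C, HDF3CGF, KF3CT, MyoF, Mphg). Compounds were added 1 h before stimulation and left for 24 h (MyoF 48 h; BT 72 h for soluble read-outs or 6 d for IgG). Biomarkers were read by ELISA, cytotoxicity by SRB, PBMC viability and proliferation by Alamar Blue. Each well value was divided by the mean of 8 DMSO control wells on the same plate and log10 transformed; duplicate blinded samples were tested at 4 concentrations.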

Compound in another experiment: O=C(O)C(F)(F)C(F)(F)F [Perfluoropropanoic acid]
The procedure:
as §1

Compound in the next experiment: FC(F)(F)C(F)(F)C(F)(F)C(F)(F)C(F)(F)C(F)(F)I [Perfluoro-1-iodohexane]
On the procedure: as §1

Compound in experiment [2]: FC(F)(F)C(F)(F)C(F)(F)C(F)(F)C(F)(F)CCI [1-Iodo-1H,1H,2H,2H-perfluoroheptane]
The procedure: as §1

Compound in experiment [3]: OCCC(F)(F)C(F)(F)C(F)(F)C(F)(F)C(F)(F)C(F)(F)F [6:2 Fluorotelomer alcohol]
The procedure: as §1

Compound in another experiment: O=C(O)C(F)(F)C(F)(F)C(F)(F)F [Perfluorobutanoic acid]
On the procedure:
as §1

Compound in experiment [4]: O=C(O)C(F)(F)OC(F)(F)C(F)(F)OC(F)(F)F [Perfluoro-3,6-dioxaheptanoic acid]
On the procedure: as §1

± gives the standard deviation of the averaged measurements.

As for CASM3C:Proliferation, the “level (log10)” value in experiment [1] (6700 nM) was -0.0225 ± 0.0021; in experiment [1] (20000 nM), -0.0045 ± 0.028; in experiment [1] (60000 nM), 0.0065 ± 0.026; with Perfluoropropanoic acid (6700 nM), 0.0065 ± 0.0035; with Perfluoropropanoic acid (20000 nM) it was -0.0355 ± 0.063; with Perfluoropropanoic acid (60000 nM), 0.017 ± 0.033. In addition, the “level (log10)” value with Perfluoro-1-iodohexane (6700 nM) is 0.023 ± 0.0071; with Perfluoro-1-iodohexane (20000 nM) it was -0.02 ± 0.013; with Perfluoro-1-iodohexane (60000 nM), -0.021 ± 0.067; in experiment [2] (6700 nM), -0.034 ± 0.0071; in experiment [2] (20000 nM) it was -0.101 ± 0.062; in experiment [2] (60000 nM) it was -0.106 ± 0.054. Besides, the “level (log10)” value in experiment [3] (6700 nM) is -0.004 ± 0.021; in experiment [3] (20000 nM), -0.0205 ± 0.023; with Perfluorobutanoic acid (6700 nM), 0.01 ± 0.0099; with Perfluorobutanoic acid (20000 nM), -0.0015 ± 0.025; with Perfluorobutanoic acid (60000 nM), -0.007 ± 0.017; in experiment [4] (6700 nM), 0.02 ± 0.016. The “level (log10)” value was -0.034 ± 0.065 in experiment [4] (20000 nM) and -0.077 ± 0.017 in experiment [4] (60000 nM).
As for CASM3C:SRB, the “level (log10)” value is -0.008 ± 0.0014 in experiment [1] (6700 nM); -0.003 ± 0.0042 in experiment [1] (20000 nM); -0.009 ± 0.0057 in experiment [1] (60000 nM); 0.0035 ± 0.00071 with Perfluoropropanoic acid (6700 nM); -0.0015 ± 0.00071 in the experiment with Perfluoropropanoic acid (20000 nM); -0.0015 ± 0.005 with Perfluoropropanoic acid (60000 nM). For the same test system, the “level (log10)” value is 0.0035 ± 0.013 with Perfluoro-1-iodohexane (6700 nM); 0.0015 ± 0.0021 in the experiment with Perfluoro-1-iodohexane (20000 nM); -0.0015 ± 0.016 with Perfluoro-1-iodohexane (60000 nM); 0.0035 ± 0.0021 in experiment [2] (6700 nM); -0.0075 ± 0.0078 in experiment [2] (20000 nM); -0.024 ± 0.0028 in experiment [2] (60000 nM). The “level (log10)” value was 0.0075 ± 0.005 in experiment [3] (6700 nM); -0.003 ± 0.0028 in experiment [3] (20000 nM); 0.0005 ± 0.0064 with Perfluorobutanoic acid (6700 nM); -0.0055 ± 0.011 in the experiment with Perfluorobutanoic acid (20000 nM); 0.002 ± 0.0042 with Perfluorobutanoic acid (60000 nM); -0.0065 ± 0.00071 in experiment [4] (6700 nM). Also, the “level (log10)” value was -0.002 ± 0.0028 in experiment [4] (20000 nM) and -0.0005 ± 0.0035 in experiment [4] (60000 nM).
CASM3C:Serum Amyloid A: the “level (log10)” value in experiment [1] (6700 nM) is -0.0235 ± 0.044; in experiment [1] (20000 nM), -0.0195 ± 0.043; in experiment [1] (60000 nM) it was -0.036 ± 0.025; with Perfluoropropanoic acid (6700 nM), -0.05 ± 0.033; in the experiment with Perfluoropropanoic acid (20000 nM) it was -0.0755 ± 0.026; with Perfluoropropanoic acid (60000 nM) it was -0.0465 ± 0.054. Moreover, the “level (log10)” value with Perfluoro-1-iodohexane (6700 nM) was 0.0035 ± 0.042; with Perfluoro-1-iodohexane (20000 nM), 0.008 ± 0.035; with Perfluoro-1-iodohexane (60000 nM), 0.007 ± 0.025; in experiment [2] (6700 nM), 0.011 ± 0.023; in experiment [2] (20000 nM), 0.003 ± 0.0014; in experiment [2] (60000 nM), -0.0195 ± 0.026. Also, the “level (log10)” value in experiment [3] (6700 nM) was -0.013 ± 0.0028; in experiment [3] (20000 nM) it was -0.009 ± 0.0042; with Perfluorobutanoic acid (6700 nM) it was -0.021; with Perfluorobutanoic acid (20000 nM), 0.0225 ± 0.016; with Perfluorobutanoic acid (60000 nM), -0.009 ± 0.041; in experiment [4] (6700 nM), -0.038 ± 0.055. The “level (log10)” value is -0.014 ± 0.0085 in experiment [4] (20000 nM) and -0.002 ± 0.086 in experiment [4] (60000 nM).
Regarding HDF3CGF:CCL2/MCP-1, the “level (log10)” value in experiment [1] (6700 nM) was 0.0015 ± 0.0092; in experiment [1] (20000 nM) it was 0.0025 ± 0.012; in experiment [1] (60000 nM), 0.026 ± 0.047; with Perfluoropropanoic acid (6700 nM), -0.022 ± 0.047; in the experiment with Perfluoropropanoic acid (20000 nM), -0.024 ± 0.04; in the experiment with Perfluoropropanoic acid (60000 nM), 0.017 ± 0.051. Besides, the “level (log10)” value in the experiment with Perfluoro-1-iodohexane (6700 nM) is -0.0125 ± 0.013; with Perfluoro-1-iodohexane (20000 nM) it was -0.02 ± 0.0099; with Perfluoro-1-iodohexane (60000 nM), -0.065 ± 0.034; in experiment [2] (6700 nM), 0.0085 ± 0.0035; in experiment [2] (20000 nM), 0.02 ± 0.021; in experiment [2] (60000 nM), -0.013 ± 0.035. For the same test system, the “level (log10)” value in experiment [3] (6700 nM) is 0.0015 ± 0.0035; in experiment [3] (20000 nM) it was 0.0095 ± 0.019; with Perfluorobutanoic acid (6700 nM), -0.008 ± 0.021; with Perfluorobutanoic acid (20000 nM), 0.004 ± 0.014; with Perfluorobutanoic acid (60000 nM) it was 0.017 ± 0.0014; in experiment [4] (6700 nM), 0.0155 ± 0.029. The entries for the “level (log10)” value in experiment [4] (20000 nM) and in experiment [4] (60000 nM) were 0.027 ± 0.023 and 0.0055 ± 0.049, respectively.
